The values that follow come from paper PMC12608622, “Novel Ruthenacarborane–NSAID Conjugates” (Molecules, 2025).

Holding throughout (test): fluorescence-based COX inhibitor assay kit
Assay type in all cases: biochemical

The target in one assay is T1, COX-1 (Ovis aries, UniProt P05979).
T1 construct: gene PTGS1; construct not described
T1 sequence (P05979 25-600): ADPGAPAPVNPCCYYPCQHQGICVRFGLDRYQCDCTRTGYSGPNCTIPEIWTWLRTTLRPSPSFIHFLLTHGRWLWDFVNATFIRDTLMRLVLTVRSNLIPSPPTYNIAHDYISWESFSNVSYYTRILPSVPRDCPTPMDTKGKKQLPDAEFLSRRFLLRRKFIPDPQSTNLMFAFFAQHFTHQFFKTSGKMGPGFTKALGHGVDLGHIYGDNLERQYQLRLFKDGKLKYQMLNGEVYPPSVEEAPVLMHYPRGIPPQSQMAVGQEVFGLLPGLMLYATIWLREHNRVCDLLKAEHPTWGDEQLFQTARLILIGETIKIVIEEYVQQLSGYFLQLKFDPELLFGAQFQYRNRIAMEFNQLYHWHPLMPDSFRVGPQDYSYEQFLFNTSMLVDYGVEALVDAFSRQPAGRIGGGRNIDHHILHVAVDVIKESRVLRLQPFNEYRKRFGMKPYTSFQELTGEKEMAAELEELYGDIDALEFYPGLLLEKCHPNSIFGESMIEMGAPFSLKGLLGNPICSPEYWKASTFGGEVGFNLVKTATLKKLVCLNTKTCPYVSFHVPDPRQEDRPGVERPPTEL
To be noted: […] compound. The source says:
fluorescence-based COX inhibitor assay kit on COX-1

Assay [1] concerns the target T2, COX-2 (Homo sapiens, UniProt P35354).
T2 construct: gene PTGS2; construct not described
T2 sequence (P35354 18-604): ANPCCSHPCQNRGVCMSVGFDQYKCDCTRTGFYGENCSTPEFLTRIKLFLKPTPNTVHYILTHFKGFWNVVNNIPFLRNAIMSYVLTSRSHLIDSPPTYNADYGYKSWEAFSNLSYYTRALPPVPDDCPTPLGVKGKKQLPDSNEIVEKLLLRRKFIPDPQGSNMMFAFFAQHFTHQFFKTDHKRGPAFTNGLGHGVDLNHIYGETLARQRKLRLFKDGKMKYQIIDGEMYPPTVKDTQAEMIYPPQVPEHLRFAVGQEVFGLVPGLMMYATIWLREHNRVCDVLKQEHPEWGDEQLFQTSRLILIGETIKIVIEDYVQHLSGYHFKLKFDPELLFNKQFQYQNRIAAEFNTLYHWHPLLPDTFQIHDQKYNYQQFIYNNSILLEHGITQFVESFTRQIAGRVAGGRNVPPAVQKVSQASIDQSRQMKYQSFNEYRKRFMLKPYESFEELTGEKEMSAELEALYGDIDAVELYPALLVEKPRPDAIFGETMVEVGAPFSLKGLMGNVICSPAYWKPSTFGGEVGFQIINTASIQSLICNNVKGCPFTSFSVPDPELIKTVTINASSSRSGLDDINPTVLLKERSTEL

The target of assay [2] is T2, COX-2. To be noted: […] compound.

Take “[Ru(η^6-p-cymene)-2-{ethyl (R/S)-2-[4-(2-fluorobiphenyl-4-yl)propanoic acid ester]-closo-C2B9H10}] [4b]”: on COX-1, the “% Inhibition @ 100 μM / COX-1” value is 40%.
The IC50 is the concentration that inhibits the measured activity by half. Substance “Cesium 1-(2′-hydroxyethyl)-nido-carborane [2b]” registered a half-inhibitory concentration (IC50) against COX-2 [1] of 84.1 µM. In other words, the double-digit micromolar range.
With “[Ru(η^6-p-cymene)-1-{methyl (R/S)-2-[4-(2-fluorobiphenyl-4-yl)propanoic acid ester]-closo-C2B9H10}] [4a]”, at COX-1, the “% Inhibition @ 100 μM / COX-1” value is given as 33%.
“[Ru(η^6-p-cymene)-2-{ethyl (R/S)-2-[4-(2-propylphenyl)propanoic acid ester]-closo-C2B9H10}] [6b]”: the “% Inhibition @ 100 μM / COX-1” value on COX-1 is on record as 30%.
As for “Cesium 1-(1′-hydroxymethyl)-nido-carborane [2a]”, the “% Inhibition @ 100 μM / COX-2” value at COX-2 [2] is given as 38%.
